pIC50: −log10 of the molar value. Where a SMILES comes first, the peptide text is derived from it. Bridges are numbered along the chain shown (N, C = ends). [ ]: non-standard residue; d: D form. The star is where a group is joined. hPhe(3,5-F2-4-CF3) = N[C@@H](CCc1cc(F)c(C(F)(F)F)c(F)c1)C(=O)O; hPhe(3-Cl-4-CF3) = N[C@@H](CCc1ccc(C(F)(F)F)c(Cl)c1)C(=O)O; NPrPhe(4-CF3) = CCCN[C@@H](Cc1ccc(C(F)(F)F)cc1)C(=O)O; NMeGly(cPent) = CN[C@H](C(=O)O)C1CCCC1; Pro(4,4-F2) = O=C(O)[C@@H]1CC(F)(F)CN1; αMeCha = C[C@](N)(CC1CCCCC1)C(=O)O; NMeD = CN[C@@H](CC(=O)O)C(=O)O; NMeL = CN[C@@H](CC(C)C)C(=O)O; Morpholide = C1CN(*)CCO1; Ac5c = NC1(C(=O)O)CCCC1; Aze = O=C(O)[C@@H]1CCN1; Sar = CNCC(=O)O
Assays:
HRAS wild-type protein = HRAS wild-type protein (Homo sapiens, UniProt P01112); assay: Binding to HRAS by surface plasmon resonance (SPR), KD and KD ratio to KRAS
Chain of HRAS wild-type protein (P01112 whole entry): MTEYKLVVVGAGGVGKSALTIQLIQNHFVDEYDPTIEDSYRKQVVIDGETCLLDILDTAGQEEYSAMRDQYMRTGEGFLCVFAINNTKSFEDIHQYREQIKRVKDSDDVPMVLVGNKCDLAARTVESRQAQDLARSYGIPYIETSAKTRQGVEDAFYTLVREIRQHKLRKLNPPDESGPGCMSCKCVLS
Outline: (§1)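 Single-cycle kinetics on GDP-loaded biotin-Avi RAS captured to ~100–300 RU; 75 s ascending injections, 100 µL/min, 30°C. HBS pH 7.4 + 10 mM MgCl2/10 µM GDP/4% DMSO. 1:1 fit, KD.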

[1] = molecular target: GDP-bound NRAS wild-type protein (Homo sapiens, UniProt P01111); assay: Binding to NRAS by surface plasmon resonance (SPR), KD and KD ratio to KRAS
Chain of GDP-bound NRAS wild-type protein (P01111 whole entry): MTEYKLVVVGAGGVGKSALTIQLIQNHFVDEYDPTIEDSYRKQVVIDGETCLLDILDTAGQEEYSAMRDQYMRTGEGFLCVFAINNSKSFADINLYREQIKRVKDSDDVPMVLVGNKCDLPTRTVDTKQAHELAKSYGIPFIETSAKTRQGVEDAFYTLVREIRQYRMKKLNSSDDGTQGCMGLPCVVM
Outline: as §1

[2] = test system: human lung cancer strain NCI-H441; format: cell-based
Outline: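 Proliferation was scored by […] measured after the reagent was added to cultures kept at 37°C in 5% carbon dioxide.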

[3] = ratio of the KD value with respect to HRAS wild-type protein to the KD value with respect to KRAS
[4] = ratio of the KD value with respect to GDP-bound NRAS wild-type protein to the KD value with respect to KRAS
[5] = ratio of KD for HRAS wild-type protein to KD for KRAS
[6] = ratio of KD for GDP-bound NRAS wild-type protein to KD for KRAS

SMILES | pIC50 [2] | HRAS /KRAS (HRAS wild-type protein; ratio of KD value for HRAS wild-type protein to KD value for KRAS (SPR)) | NRAS /KRAS ([1]; ratio of KD value for GDP-bound NRAS wild-type protein to KD value for KRAS (SPR)) | HRAS /KRAS (HRAS wild-type protein; [3]) | NRAS /KRAS [1, 4] | HRAS /KRAS (HRAS wild-type protein; [5]) | NRAS /KRAS [1, 6]
CCCN(C)C(=O)[C@@H]1CC(=O)N(C)[C@@H](CC(F)(F)F)C(=O)N[C@@H]([C@@H](C)CC)C(=O)N(C)CC(=O)N(C)[C@H]2C/C=C\CCN(C2=O)[C@@H](Cc2ccc(C(F)(F)F)cc2)C(=O)N(C)CC(=O)N[C@@H](CCc2cc(F)c(C(F)(F)F)c(F)c2)C(=O)N2C[C@H](OCC)C[C@H]2C(=O)NC2(CC(F)(F)C2)C(=O)N(C)[C@@H](C2CCCC2)C(=O)N1C [PP1734] | 8.36 | A (a compound having 10 or more and less than 20 is denoted as A) | A (a compound having 10 or more and less than 20 is denoted as A) | – | – | – | –
CCCN1C(=O)CN(C)C(=O)CN(C)C(=O)[C@H]([C@@H](C)CC)NC(=O)[C@H](CC(C)C)N(C)C(=O)C[C@@H](C(=O)N2CCOCC2)N(C)C(=O)[C@H](C2CCCC2)N(C)C(=O)C2(CCCC2)NC(=O)[C@@H]2CCCN2C(=O)[C@H](CCc2cc(F)c(C(F)(F)F)c(F)c2)NC(=O)CN(C)C(=O)[C@@H]1Cc1ccc(C(F)(F)F)cc1 [PP0753] ([NMeL]I[Sar][Sar][NPrPhe(4-CF3)][Sar][hPhe(3,5-F2-4-CF3)]P[Ac5c][NMeGly(cPent)][NMeD]-Morpholide; lactam N-11) | 8.09 | – | – | C (A compound having a KD ratio of 0.1 or more and less than 3 is denoted as C) | B (a compound having 3 or more and less than 10 is denoted as B) | – | –
CCCN1C(=O)[C@@H]2CCN2C(=O)CN(C)C(=O)[C@H]([C@@H](C)CC)NC(=O)[C@H](CC(C)C)N(C)C(=O)C[C@@H](C(=O)N2CCOCC2)N(C)C(=O)[C@H](C2CCCC2)N(C)C(=O)[C@](C)(CC2CCCCC2)NC(=O)[C@@H]2CCCN2C(=O)[C@H](CCc2cc(F)c(C(F)(F)F)c(F)c2)NC(=O)CN(C)C(=O)[C@@H]1Cc1ccc(C(F)(F)F)cc1 [PP0796] ([NMeL]I[Sar][Aze][NPrPhe(4-CF3)][Sar][hPhe(3,5-F2-4-CF3)]P[αMeCha][NMeGly(cPent)][NMeD]-Morpholide; lactam N-11) | 6.36 | – | – | – | – | B (a compound having 3 or more and less than 10 is denoted as B) | C (A compound having a KD ratio of 0.1 or more and less than 3 is denoted as C)
CCCN1C(=O)CN(C)C(=O)[C@@H]2CCN2C(=O)[C@H]([C@@H](C)CC)NC(=O)[C@H](CC(C)C)N(C)C(=O)C[C@@H](C(=O)N(C)C)NC(=O)[C@H](C2CCCC2)N(C)C(=O)C2(CCCC2)NC(=O)[C@@H]2CC(F)(F)CN2C(=O)[C@H](CCc2ccc(C(F)(F)F)c(Cl)c2)NC(=O)CN(C)C(=O)[C@@H]1Cc1ccc(C(F)(F)F)cc1 [PP0375] ([NMeL]I[Aze][Sar][NPrPhe(4-CF3)][Sar][hPhe(3-Cl-4-CF3)][Pro(4,4-F2)][Ac5c][NMeGly(cPent)]D-NMe2; lactam N-11) | 7.24 | – | – | – | – | B (a compound having 3 or more and less than 10 is denoted as B) | B (a compound having 3 or more and less than 10 is denoted as B)

Second part, led by results:

pIC50 [2] | SMILES | HRAS /KRAS (HRAS wild-type protein; ratio of KD value for HRAS wild-type protein to KD value for KRAS (SPR)) | NRAS /KRAS ([1]; ratio of KD value for GDP-bound NRAS wild-type protein to KD value for KRAS (SPR)) | HRAS /KRAS (HRAS wild-type protein; [3]) | NRAS /KRAS [1, 4] | HRAS /KRAS (HRAS wild-type protein; [5]) | NRAS /KRAS [1, 6]
7.17 | CCCN(C)C(=O)[C@@H]1CC(=O)N(C)[C@@H](CC(C)C)C(=O)N[C@@H](C2CCOCC2)C(=O)N(C)CC(=O)N(C)[C@H]2C/C=C\CCN(C2=O)[C@@H](Cc2ccc(C(F)(F)F)cc2)C(=O)N(C)CC(=O)N[C@@H](CCc2cc(F)c(C(F)(F)F)c(F)c2)C(=O)N2C[C@H](OCC)C[C@H]2C(=O)NC2(CC(C)(C)C2)C(=O)N(C)[C@@H](C2CCCC2)C(=O)N1C [PP1923] | – | – | A (a compound having 10 or more and less than 20 is denoted as A) | A (a compound having 10 or more and less than 20 is denoted as A) | – | –
8.39 | CCO[C@@H]1C[C@H]2C(=O)NC3(CC(C)(C)C3)C(=O)N(C)[C@@H](C3CCCC3)C(=O)N(C)[C@H](C(=O)N3CCCC3)CC(=O)N(C)[C@H]3CCC/C=C/c4ccc(cc4)C[C@@H](C(=O)N(C)CC(=O)N[C@@H](CCc4cc(F)c(C(F)(F)F)c(F)c4)C(=O)N2C1)N1CC/C=C\C[C@@H](C1=O)N(C)C(=O)CN(C1CC1)C(=O)[C@H]([C@@H](C)CC)NC3=O [PP2583] | – | – | – | – | A (a compound having 10 or more and less than 20 is denoted as A) | A (a compound having 10 or more and less than 20 is denoted as A)

From EP4603105A1, “PHARMACEUTICAL COMPOSITION CONTAINING CYCLIC COMPOUND HAVING SELECTIVE KRAS INHIBITORY EFFECT AGAINST HRAS AND NRAS” (CHUGAI SEIYAKU KABUSHIKI KAISHA, priority 2022, dated 2024)
